Publication PMC9284491 (Nature Communications, 2022)
Entries after “also recorded” stand apart in the source; their conditions may differ.

Assay: Treatment-emergent adverse events (MedDRA, NCI-CTCAE v4.03), safety populations
Format: in vivo, human
Procedure: Overall safety in Parts A and B was assessed by tabulating TEAEs, coded using the Medical Dictionary for Regulatory Activities (MedDRA) version 22.1, and graded according to NCI-CTCAE v4.03 criteria. TEAEs were classified as related or unrelated to amcenestrant therapy based upon the local investigating physician’s clinical judgment. The safety population included all patients exposed to at least one dose of the study treatment. Results were analyzed using descriptive statistics.

For `O=C(O)c1ccc2c(c1)CCCC(c1ccc(Cl)cc1Cl)=C2c1ccc(O[C@H]2CCN(CCCF)C2)cc1` [amcenestrant, 6-(2,4-Dichlorophenyl)−5-[4-[(3S)−1-(3-fluoropropyl)pyrrolidin-3-yl]oxyphenyl]−8,9-dihydro-7H-benzo[7]annulene-2-carboxylic acid], the “Hypoesthesia, TEAEs, Grade 2” value (Part A, 20-600 mg QD (N = 16)) was 0 n (%), the “Hypoesthesia, TEAEs, Grade ≥3” value (Part A, 20-600 mg QD (N = 16)) was 0 n (%) and the “Hypoesthesia, Treatment-related TEAEs, All Grades” value (Part A, 20-600 mg QD (N = 16)) was 0 n (%). The “Hypoesthesia, Treatment-related TEAEs, Grade 1” value (Part A, 20-600 mg QD (N = 16)) was 0 n (%), the “Hypoesthesia, Treatment-related TEAEs, Grade 2” value (Part A, 20-600 mg QD (N = 16)) was 0 n (%) and the “Hypoesthesia, Treatment-related TEAEs, Grade ≥3” value (Part A, 20-600 mg QD (N = 16)) was 0 n (%). For the same molecule, the “Nausea, TEAEs, All grades” value (Part A, 20-600 mg QD (N = 16)) was 6 (37.5) n (%), the “Nausea, TEAEs, Grade 1” value (Part A, 20-600 mg QD (N = 16)) was 3 (18.8) n (%) and the “Nausea, TEAEs, Grade 2” value (Part A, 20-600 mg QD (N = 16)) was 3 (18.8) n (%). The “Nausea, TEAEs, Grade ≥3” value (Part A, 20-600 mg QD (N = 16)) was 0 n (%), the “Nausea, Treatment-related TEAEs, All Grades” value (Part A, 20-600 mg QD (N = 16)) was 4 (25.0) n (%) and the “Nausea, Treatment-related TEAEs, Grade 1” value (Part A, 20-600 mg QD (N = 16)) was 3 (18.8) n (%). For the same molecule, the “Nausea, Treatment-related TEAEs, Grade 2” value (Part A, 20-600 mg QD (N = 16)) was 1 (6.3) n (%), the “Nausea, Treatment-related TEAEs, Grade ≥3” value (Part A, 20-600 mg QD (N = 16)) was 0 n (%) and the “Night sweat, TEAEs, All grades” value (Part A, 20-600 mg QD (N = 16)) was 3 (18.8) n (%). The “Night sweat, TEAEs, Grade 1” value (Part A, 20-600 mg QD (N = 16)) was 3 (18.8) n (%), the “Night sweat, TEAEs, Grade 2” value (Part A, 20-600 mg QD (N = 16)) was 0 n (%) and the “Night sweat, TEAEs, Grade ≥3” value (Part A, 20-600 mg QD (N = 16)) was 0 n (%). For the same molecule, the “Night sweat, Treatment-related TEAEs, All Grades” value (Part A, 20-600 mg QD (N = 16)) was 3 (18.8) n (%), the “Night sweat, Treatment-related TEAEs, Grade 1” value (Part A, 20-600 mg QD (N = 16)) was 3 (18.8) n (%) and the “Night sweat, Treatment-related TEAEs, Grade 2” value (Part A, 20-600 mg QD (N = 16)) was 0 n (%). For the same molecule, the “Night sweat, Treatment-related TEAEs, Grade ≥3” value (Part A, 20-600 mg QD (N = 16)) was 0 n (%), the “Urinary tract infection, TEAEs, All grades” value (Part A, 20-600 mg QD (N = 16)) was 4 (25.0) n (%) and the “Urinary tract infection, TEAEs, Grade 1” value (Part A, 20-600 mg QD (N = 16)) was 0 n (%). For the same molecule, the “Urinary tract infection, TEAEs, Grade 2” value (Part A, 20-600 mg QD (N = 16)) was 3 (18.8) n (%), the “Urinary tract infection, TEAEs, Grade ≥3” value (Part A, 20-600 mg QD (N = 16)) was 1 (6.3) n (%) and the “Urinary tract infection, Treatment-related TEAEs, All Grades” value (Part A, 20-600 mg QD (N = 16)) was 0 n (%). For the same molecule, the “Urinary tract infection, Treatment-related TEAEs, Grade 1” value (Part A, 20-600 mg QD (N = 16)) was 0 n (%), the “Urinary tract infection, Treatment-related TEAEs, Grade 2” value (Part A, 20-600 mg QD (N = 16)) was 0 n (%) and the “Urinary tract infection, Treatment-related TEAEs, Grade ≥3” value (Part A, 20-600 mg QD (N = 16)) was 0 n (%). The “cardiac non-treatment-related TEAEs” value (Part A, Grade 1 palpitations and Grade 2 prolonged QT interval) was 2 patients, the “eye disorder treatment-related TEAE” value (Part A, Grade 1 photophobia) was 1 patient and the “serious TEAEs” value (Part A, associated with disease progression, considered unrelated to amcenestrant) was “three patients”. For the same molecule, the “TEAE leading to treatment discontinuation” value (Part B) was “one Grade ≥3 TEAE of pneumonia led to treatment discontinuation”, the “eye disorder non-treatment-related TEAEs” value (Part B) was “Three eye disorder non-treatment-related TEAEs were reported in two patients” and the “serious TEAEs related to amcenestrant” value (Part B / overall, by investigator) was “none were considered related to amcenestrant; also recorded: No serious AEs were considered treatment-related”. For the same molecule, the “ALT increased, TEAEs, All grades” value (Part B, 400 mg QD (N = 49)) was 3 (6.1) n (%), the “ALT increased, TEAEs, Grade 1” value (Part B, 400 mg QD (N = 49)) was 0 n (%) and the “ALT increased, TEAEs, Grade 2” value (Part B, 400 mg QD (N = 49)) was 0 n (%). For the same molecule, the “ALT increased, TEAEs, Grade ≥3” value (Part B, 400 mg QD (N = 49)) was 3 (6.1) n (%), the “ALT increased, Treatment-related TEAEs, All Grades” value (Part B, 400 mg QD (N = 49)) was 0 n (%) and the “ALT increased, Treatment-related TEAEs, Grade 1” value (Part B, 400 mg QD (N = 49)) was 0 n (%). The “ALT increased, Treatment-related TEAEs, Grade 2” value (Part B, 400 mg QD (N = 49)) was 0 n (%), the “ALT increased, Treatment-related TEAEs, Grade ≥3” value (Part B, 400 mg QD (N = 49)) was 0 n (%) and the “AST increased, TEAEs, All grades” value (Part B, 400 mg QD (N = 49)) was 3 (6.1) n (%). The “AST increased, TEAEs, Grade 1” value (Part B, 400 mg QD (N = 49)) was 0 n (%), the “AST increased, TEAEs, Grade 2” value (Part B, 400 mg QD (N = 49)) was 0 n (%) and the “AST increased, TEAEs, Grade ≥3” value (Part B, 400 mg QD (N = 49)) was 3 (6.1) n (%). The “AST increased, Treatment-related TEAEs, All Grades” value (Part B, 400 mg QD (N = 49)) was 0 n (%), the “AST increased, Treatment-related TEAEs, Grade 1” value (Part B, 400 mg QD (N = 49)) was 0 n (%) and the “AST increased, Treatment-related TEAEs, Grade 2” value (Part B, 400 mg QD (N = 49)) was 0 n (%). For the same molecule, the “AST increased, Treatment-related TEAEs, Grade ≥3” value (Part B, 400 mg QD (N = 49)) was 0 n (%), the “Abdominal pain upper, TEAEs, All grades” value (Part B, 400 mg QD (N = 49)) was 6 (12.2) n (%) and the “Abdominal pain upper, TEAEs, Grade 1” value (Part B, 400 mg QD (N = 49)) was 2 (4.1) n (%). For the same molecule, the “Abdominal pain upper, TEAEs, Grade 2” value (Part B, 400 mg QD (N = 49)) was 4 (8.2) n (%), the “Abdominal pain upper, TEAEs, Grade ≥3” value (Part B, 400 mg QD (N = 49)) was 0 n (%) and the “Abdominal pain upper, Treatment-related TEAEs, All Grades” value (Part B, 400 mg QD (N = 49)) was 1 (2.0) n (%). For the same molecule, the “Abdominal pain upper, Treatment-related TEAEs, Grade 1” value (Part B, 400 mg QD (N = 49)) was 1 (2.0) n (%), the “Abdominal pain upper, Treatment-related TEAEs, Grade 2” value (Part B, 400 mg QD (N = 49)) was 0 n (%) and the “Abdominal pain upper, Treatment-related TEAEs, Grade ≥3” value (Part B, 400 mg QD (N = 49)) was 0 n (%). For the same molecule, the “Abdominal pain, TEAEs, All grades” value (Part B, 400 mg QD (N = 49)) was 11 (22.4) n (%), the “Abdominal pain, TEAEs, Grade 1” value (Part B, 400 mg QD (N = 49)) was 8 (16.3) n (%) and the “Abdominal pain, TEAEs, Grade 2” value (Part B, 400 mg QD (N = 49)) was 3 (6.1) n (%). For the same molecule, the “Abdominal pain, TEAEs, Grade ≥3” value (Part B, 400 mg QD (N = 49)) was 0 n (%), the “Abdominal pain, Treatment-related TEAEs, All Grades” value (Part B, 400 mg QD (N = 49)) was 2 (4.1) n (%) and the “Abdominal pain, Treatment-related TEAEs, Grade 1” value (Part B, 400 mg QD (N = 49)) was 2 (4.1) n (%). The “Abdominal pain, Treatment-related TEAEs, Grade 2” value (Part B, 400 mg QD (N = 49)) was 0 n (%), the “Abdominal pain, Treatment-related TEAEs, Grade ≥3” value (Part B, 400 mg QD (N = 49)) was 0 n (%) and the “Any TEAE, TEAEs, All grades” value (Part B, 400 mg QD (N = 49)) was 49 (100) n (%). The “Any TEAE, TEAEs, Grade 1” value (Part B, 400 mg QD (N = 49)) was 11 (22.4) n (%), the “Any TEAE, TEAEs, Grade 2” value (Part B, 400 mg QD (N = 49)) was 22 (44.9) n (%) and the “Any TEAE, TEAEs, Grade ≥3” value (Part B, 400 mg QD (N = 49)) was 16 (32.7) n (%). The “Any TEAE, Treatment-related TEAEs, All Grades” value (Part B, 400 mg QD (N = 49)) was 26 (53.1) n (%), the “Any TEAE, Treatment-related TEAEs, Grade 1” value (Part B, 400 mg QD (N = 49)) was 21 (42.9) n (%) and the “Any TEAE, Treatment-related TEAEs, Grade 2” value (Part B, 400 mg QD (N = 49)) was 5 (10.2) n (%). The “Any TEAE, Treatment-related TEAEs, Grade ≥3” value (Part B, 400 mg QD (N = 49)) was 0 n (%), the “Arthralgia, TEAEs, All grades” value (Part B, 400 mg QD (N = 49)) was 10 (20.4) n (%) and the “Arthralgia, TEAEs, Grade 1” value (Part B, 400 mg QD (N = 49)) was 7 (14.3) n (%). For the same molecule, the “Arthralgia, TEAEs, Grade 2” value (Part B, 400 mg QD (N = 49)) was 3 (6.1) n (%), the “Arthralgia, TEAEs, Grade ≥3” value (Part B, 400 mg QD (N = 49)) was 0 n (%) and the “Arthralgia, Treatment-related TEAEs, All Grades” value (Part B, 400 mg QD (N = 49)) was 4 (8.2) n (%). For the same molecule, the “Arthralgia, Treatment-related TEAEs, Grade 1” value (Part B, 400 mg QD (N = 49)) was 3 (6.1) n (%), the “Arthralgia, Treatment-related TEAEs, Grade 2” value (Part B, 400 mg QD (N = 49)) was 1 (2.0) n (%) and the “Arthralgia, Treatment-related TEAEs, Grade ≥3” value (Part B, 400 mg QD (N = 49)) was 0 n (%). The “Asthenia, TEAEs, All grades” value (Part B, 400 mg QD (N = 49)) was 10 (20.4) n (%), the “Asthenia, TEAEs, Grade 1” value (Part B, 400 mg QD (N = 49)) was 7 (14.3) n (%) and the “Asthenia, TEAEs, Grade 2” value (Part B, 400 mg QD (N = 49)) was 3 (6.1) n (%). For the same molecule, the “Asthenia, TEAEs, Grade ≥3” value (Part B, 400 mg QD (N = 49)) was 0 n (%), the “Asthenia, Treatment-related TEAEs, All Grades” value (Part B, 400 mg QD (N = 49)) was 2 (4.1) n (%) and the “Asthenia, Treatment-related TEAEs, Grade 1” value (Part B, 400 mg QD (N = 49)) was 2 (4.1) n (%). The “Asthenia, Treatment-related TEAEs, Grade 2” value (Part B, 400 mg QD (N = 49)) was 0 n (%) and the “Asthenia, Treatment-related TEAEs, Grade ≥3” value (Part B, 400 mg QD (N = 49)) was 0 n (%).
